Experimental data: ChEMBL document CHEMBL1201862, “PubChem BioAssay data set” (2004)
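Following 48 hours of exposure in 96-well plates, responses at five concentrations were used to interpolate endpoints linearly. At the GI50, growth is halved.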 Activity calls are given as the source filed them. Cut-off read from the data, not from the text of the source: active = GI50 up to about 1.1 µM and inactive = higher.

Experiments:
Assay in all cases: NCI tumour cell line growth inhibition, 48 h
Malme-3M = system: Malme-3M
SF-268 = system: SF-268
CCRF-CEM = system: CCRF-CEM
NCI-H226 = system: NCI-H226
HT-29 = system: HT-29
ACHN = system: ACHN
OVCAR-5 = system: OVCAR-5
HOP-62 = system: HOP-62
OVCAR-3 = system: OVCAR-3
786-0 = system: 786-0
HCT-15 = system: HCT-15
MCF7 = system: MCF7
LOX IMVI = system: LOX IMVI
A549 = system: A549
M14 = system: M14
HL-60 = system: HL-60
UACC-257 = system: UACC-257
HCT-116 = system: HCT-116
OVCAR-8 = system: OVCAR-8
SNB-75 = system: SNB-75

SMILES	GI50 (Malme-3M)	GI50 (SF-268)	GI50 (CCRF-CEM)	GI50 (NCI-H226)	GI50 (HT-29)	GI50 (ACHN)	GI50 (OVCAR-5)	GI50 (HOP-62)	GI50 (OVCAR-3)	GI50 (786-0)	GI50 (HCT-15) [µM]	GI50 (MCF7)	GI50 (LOX IMVI)	GI50 (A549)	GI50 (M14)	GI50 (HL-60)	GI50 (UACC-257)	GI50 (HCT-116)	GI50 (OVCAR-8)	GI50 (SNB-75)
C=C[C@@]1(C)CC2CC[C@]3(C)C(C)=CC(=O)CC3[C@]2(C)CC1O (some centres undefined)	> 100 µM (inactive)	> 100 µM (inactive)	38.3 µM (inactive)	> 100 µM (inactive)	> 100 µM (inactive)	> 100 µM (inactive)	> 100 µM (inactive)	> 100 µM (inactive)	67.3 µM (inactive)	> 100 µM (inactive)	> 100	> 100 µM (inactive)	> 100 µM (inactive)	> 100 µM (inactive)	> 100 µM (inactive)	32.7 µM (inactive)	> 100 µM (inactive)	91.4 µM (inactive)		
O=[N+]([O-])c1cccc([N+](=O)[O-])c1S(=O)(=O)c1ccccc1	2.28 µM (inactive)	12.2 µM (inactive)	< 0.01 µM (active)	12.2 µM (inactive)	7.67 µM (inactive)	2.17 µM (inactive)	3.66 µM (inactive)	19.9 µM (inactive)	2.49 µM (inactive)	2.09 µM (inactive)	1.92	5.87 µM (inactive)	1.84 µM (inactive)	19.8 µM (inactive)	2.27 µM (inactive)	2.71 µM (inactive)	13.2 µM (inactive)	1.89 µM (inactive)	2.48 µM (inactive)	
O=c1[nH]nc(Cc2ccc(Cl)cc2)n1O	> 100 µM (inactive)	> 100 µM (inactive)	> 100 µM (inactive)	> 100 µM (inactive)	> 100 µM (inactive)	> 100 µM (inactive)	> 100 µM (inactive)	> 100 µM (inactive)	> 100 µM (inactive)	> 100 µM (inactive)	> 100	> 100 µM (inactive)	> 100 µM (inactive)	> 100 µM (inactive)	> 100 µM (inactive)	> 100 µM (inactive)	> 100 µM (inactive)	> 100 µM (inactive)	> 100 µM (inactive)	
O=C(c1ccccc1)c1nnn(Cc2ccccc2Cn2nnc(C(=O)c3ccccc3)c2C(=O)c2ccccc2)c1C(=O)c1ccccc1	> 100 µM (inactive)	> 100 µM (inactive)	> 100 µM (inactive)	47.4 µM (inactive)	> 100 µM (inactive)	> 100 µM (inactive)	> 100 µM (inactive)	> 100 µM (inactive)	> 100 µM (inactive)	> 100 µM (inactive)	> 100		> 100 µM (inactive)	48.2 µM (inactive)	> 100 µM (inactive)	> 100 µM (inactive)	> 100 µM (inactive)	> 100 µM (inactive)	> 100 µM (inactive)	> 100 µM (inactive)
OC[C@]1(n2nc3ccccc3n2)OC[C@@H]1c1ccccc1	19.4 µM (inactive)	30.8 µM (inactive)	36.1 µM (inactive)	32.2 µM (inactive)	29.6 µM (inactive)	36.6 µM (inactive)	91.4 µM (inactive)	39.3 µM (inactive)	21.7 µM (inactive)	34.8 µM (inactive)	42.1	33.7 µM (inactive)	42.5 µM (inactive)	64.3 µM (inactive)	90.6 µM (inactive)	31.4 µM (inactive)	93.8 µM (inactive)	30.4 µM (inactive)	51.5 µM (inactive)	
Cc1nc(Nc2ccc(Cl)cc2)sc1C(=O)NNC(=O)C(=O)NN	21.9 µM (inactive)	27.8 µM (inactive)	22.2 µM (inactive)	20.3 µM (inactive)	16.6 µM (inactive)	26.4 µM (inactive)	17 µM (inactive)	21.5 µM (inactive)	21.5 µM (inactive)	17.3 µM (inactive)	17.1		17.6 µM (inactive)	21 µM (inactive)	18.6 µM (inactive)	17.4 µM (inactive)	25.1 µM (inactive)	19.6 µM (inactive)	32.5 µM (inactive)	23.7 µM (inactive)
CC(C)C(NCc1c2ccccc2nc2ccccc12)C(=O)O (centres undefined)	55.3 µM (inactive)	36.7 µM (inactive)	23.8 µM (inactive)	> 100 µM (inactive)	30.7 µM (inactive)	35 µM (inactive)	> 100 µM (inactive)	> 100 µM (inactive)	39.5 µM (inactive)	61.2 µM (inactive)	35.7		30.5 µM (inactive)	74.6 µM (inactive)	62.4 µM (inactive)	25.3 µM (inactive)	54.5 µM (inactive)	26.4 µM (inactive)	26.5 µM (inactive)	61.8 µM (inactive)
O=C(O)c1ccc(C(O)(c2ccccc2)c2ccccc2)cc1	> 100 µM (inactive)	> 100 µM (inactive)	> 100 µM (inactive)			> 100 µM (inactive)	> 100 µM (inactive)	> 100 µM (inactive)	> 100 µM (inactive)	> 100 µM (inactive)	> 100	> 100 µM (inactive)	> 100 µM (inactive)	> 100 µM (inactive)	> 100 µM (inactive)	> 100 µM (inactive)	> 100 µM (inactive)	> 100 µM (inactive)	> 100 µM (inactive)	
CSC1=Nc2ccccc2N=C(c2ccccc2)C1	> 100 µM (inactive)	> 100 µM (inactive)	21 µM (inactive)	> 100 µM (inactive)	46.7 µM (inactive)	> 100 µM (inactive)	67.1 µM (inactive)	> 100 µM (inactive)	30.7 µM (inactive)	34.5 µM (inactive)	33.3		17.2 µM (inactive)	80.2 µM (inactive)	> 100 µM (inactive)	15.3 µM (inactive)	33.1 µM (inactive)	24.6 µM (inactive)	61.7 µM (inactive)	66.5 µM (inactive)
c1ccc(-c2nnc(-c3nn(-c4ccccc4)c4nc5ccccc5nc34)o2)cc1	45.5 µM (inactive)	> 100 µM (inactive)	18.6 µM (inactive)	18.2 µM (inactive)	> 100 µM (inactive)	92.3 µM (inactive)	> 100 µM (inactive)	> 100 µM (inactive)	66.8 µM (inactive)	46.9 µM (inactive)	43.5		> 100 µM (inactive)	> 100 µM (inactive)	79.1 µM (inactive)	20.6 µM (inactive)	64.3 µM (inactive)	34.8 µM (inactive)	51.9 µM (inactive)	> 100 µM (inactive)
CC(=O)NC1C(OCc2ccccc2)OC(COC(=O)CCCCCNc2ccc([N+](=O)[O-])c3[nH]c4ccc(O)cc4c(=O)c23)C(O)C1OC(C)C(=O)N[C@@H](C)C(=O)N[C@H](CCC(=O)OCc1ccccc1)C(N)=O (some centres undefined)	1.32 µM (inactive)	2.31 µM (inactive)	3.06 µM (inactive)	4.9 µM (inactive)	0.401 µM (active)	17.3 µM (inactive)	1.06 µM (active)	5.9 µM (inactive)	2.15 µM (inactive)	1.86 µM (inactive)	0.745		2.39 µM (inactive)	1.26 µM (inactive)	1.49 µM (inactive)	2.77 µM (inactive)	2.45 µM (inactive)	0.321 µM (active)	1.64 µM (inactive)	4.13 µM (inactive)
O=c1c(Nc2ccccc2)cn(CCOc2ccccc2)c(=O)n1CCOc1ccccc1	79.6 µM (inactive)	16.5 µM (inactive)	> 100 µM (inactive)		> 100 µM (inactive)	37.7 µM (inactive)	57.5 µM (inactive)	17.2 µM (inactive)	35.9 µM (inactive)	28.2 µM (inactive)	> 100	> 100 µM (inactive)	> 100 µM (inactive)	91.8 µM (inactive)	70.5 µM (inactive)	> 100 µM (inactive)	83.2 µM (inactive)	> 100 µM (inactive)		
COc1ccc(-c2c(C3=NCCN3)nnn2-c2ccccc2)cc1	> 100 µM (inactive)	> 100 µM (inactive)	> 100 µM (inactive)	> 100 µM (inactive)	91.2 µM (inactive)	> 100 µM (inactive)	> 100 µM (inactive)	> 100 µM (inactive)	> 100 µM (inactive)	> 100 µM (inactive)	> 100		> 100 µM (inactive)	> 100 µM (inactive)	> 100 µM (inactive)	67.3 µM (inactive)	> 100 µM (inactive)	99.1 µM (inactive)	> 100 µM (inactive)	98.9 µM (inactive)
CSC1=C(C#N)C(=O)N(c2ccc(C)cc2)C(=O)C1C#N (centres undefined)	> 100 µM (inactive)	> 100 µM (inactive)	> 100 µM (inactive)	> 100 µM (inactive)	> 100 µM (inactive)	> 100 µM (inactive)	> 100 µM (inactive)	> 100 µM (inactive)	> 100 µM (inactive)	> 100 µM (inactive)	> 100	> 100 µM (inactive)	> 100 µM (inactive)	> 100 µM (inactive)	> 100 µM (inactive)	> 100 µM (inactive)	> 100 µM (inactive)	> 100 µM (inactive)		
CC(C)(Oc1ccc(/C=C/C(=O)c2ccccc2)cc1)C(=O)Nc1c(Cl)cccc1Cl	> 10 µM (inactive)	> 10 µM (inactive)	15 µM (inactive)	> 10 µM (inactive)	> 10 µM (inactive)	> 10 µM (inactive)	> 10 µM (inactive)	> 10 µM (inactive)	6.95 µM (inactive)	> 10 µM (inactive)	> 10		> 10 µM (inactive)	> 10 µM (inactive)	> 10 µM (inactive)	14.7 µM (inactive)	> 10 µM (inactive)	> 10 µM (inactive)	> 10 µM (inactive)	> 10 µM (inactive)
